From US20250262315A1 (priority 2021, published 2025)

Columns and labels:
[1] = molecular target: T1, human neutrophil elastase (Homo sapiens, UniProt P08246); experiment: Human neutrophil protease-mediated cleavage assay using pyrene probes: neutrophil elastase; assay type: biochemical; settings: 37° C.; for stability against degradation mediated by neutrophil elastase or mouse plasma (in words): additional probes; for stability against human neutrophil elastase-mediated degradation (in words): pyrene probes; for % intact probe, Neutrophil elastase: after incubation for 24 h, n = 2, mean ± SEM
T1 construct: purchased MilliporeSigma
T1 sequence (P08246 30-267): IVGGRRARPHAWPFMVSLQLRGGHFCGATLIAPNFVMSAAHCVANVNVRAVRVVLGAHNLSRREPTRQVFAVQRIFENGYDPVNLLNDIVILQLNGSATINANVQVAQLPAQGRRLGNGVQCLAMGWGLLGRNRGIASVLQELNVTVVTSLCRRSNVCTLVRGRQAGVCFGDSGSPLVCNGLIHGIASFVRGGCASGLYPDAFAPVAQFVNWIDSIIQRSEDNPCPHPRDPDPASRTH
Experimental: (§1) Human neutrophil protease-mediated cleavage assay using pyrene probes. Each test compound (10 mM in DMSO, 2 μL) was mixed with 97 μL of tris-buffered saline (TBS, pH 7.4) and 1 μL of 1-pyrenemethylamine (10 mM in DMSO, internal standard). The mixture was incubated at 37° C. for 10 min. Human neutrophil elastase (40 ng μL^−1, 20 μL in TBS, MilliporeSigma), human proteinase 3 (250 ng μL^−1, 5 μL in TBS, MilliporeSigma) or human cathepsin G (330 ng μL^−1, 5 μL in TBS, MilliporeSigma) was added to the test compound mixture in 1:1 volume ratio, followed by incubation at 37° C. Aliquots (5 μL) were collected at each time point (0, 1, 3, 6, and 24 h for elastase; 0 and 24 h for proteinase 3 and cathepsin G). Cold acetonitrile containing 1% formic acid (25 μL) was added to precipitate proteins. The mixture was then kept at −20° C. for 30 min. Precipitated proteins were pelleted by centrifugation (15,000×g, 4° C., 30 min) and supernatant of each sample was analyzed for quantification by analytical HPLC (UV absorbance at 342 nm). The amount of each probe was normalized to the peak area of the internal standard. All assays were performed at least three times in technical duplicate, and data shown are representative of the replicates.

[2] = Plasma stability test using pyrene probes, BALB/c mouse plasma; assay type: in vitro ADME; settings: 37° C.; for stability in undiluted BALB/c plasma (in words): pyrene probes; for % intact probe, 48 h incubation, Mouse / % intact probe, 96 h incubation, Mouse: undiluted mouse plasma; for % intact probe, 96 h incubation, Mouse: 96 h (4-day)
Experimental: (§2) Plasma stability test using pyrene probes. Each test compound (10 mM in DMSO, 2 μL) was mixed with 1 μL of 1-pyrenemethylamine (10 mM in DMSO, internal standard) and incubated at 37° C. for 10 min. Pooled healthy human plasma, monkey cynomolgus plasma or BALB/c mouse plasma (197 μL, Innovative Research) was added to the mixture, followed by incubation at 37° C. Aliquots (5 μL) were collected at each time point (0, 48, and 96 h for human and monkey cynomolgus plasma; 0, 1, 6, 24, 48, and 96 h for BALB/c mouse plasma) and 25 μL of cold acetonitrile containing 1% formic acid was added to precipitate proteins. The mixture was then kept at −20° C. for 30 min. Precipitated proteins were separated by centrifugation (15,000×g, 4° C., 30 min) and supernatant of each sample was obtained and analyzed for quantification by analytical HPLC as described above. All assays were performed at least three times in technical duplicate, and data shown are representative of the replicates.

[3] = Plasma stability test using pyrene probes, human plasma; assay type: in vitro ADME; settings: for % intact probe, 48 h incubation, Human / % intact probe, 96 h incubation, Human: undiluted human plasma, 37° C.
Experimental: as §2

[4] = Plasma stability test using pyrene probes, monkey plasma; assay type: in vitro ADME, cynomolgus monkey; settings: for % intact probe, 48 h incubation, Monkey / % intact probe, 96 h incubation, Monkey: undiluted monkey plasma, 37° C.
Experimental: as §2

human proteinase 3 [5] = molecular target: T2, human proteinase 3 (Homo sapiens, UniProt P24158); experiment: Human neutrophil protease-mediated cleavage assay using pyrene probes: proteinase 3; assay type: biochemical; settings: for % intact probe, Proteinase 3: after incubation for 24 h, 37° C., n = 2, mean ± SEM; for resistance to cleavage by human proteinase 3 (in words): pyrene probes
T2 construct: purchased MilliporeSigma
T2 sequence (P24158 28-248): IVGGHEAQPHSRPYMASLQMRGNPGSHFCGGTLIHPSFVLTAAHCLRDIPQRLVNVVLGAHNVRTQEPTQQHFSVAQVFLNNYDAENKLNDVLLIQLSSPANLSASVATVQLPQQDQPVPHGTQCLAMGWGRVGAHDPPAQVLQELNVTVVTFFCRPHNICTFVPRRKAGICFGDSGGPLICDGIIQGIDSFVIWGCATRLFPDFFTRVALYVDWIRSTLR
Experimental: as §1

human cathepsin G [6] = molecular target: T3, human cathepsin G (Homo sapiens, UniProt P08311); experiment: Human neutrophil protease-mediated cleavage assay using pyrene probes: cathepsin G; assay type: biochemical; settings: for % intact probe, Cathepsin G: after incubation for 24 h, 37° C., n = 2, mean ± SEM
T3 construct: purchased MilliporeSigma
T3 sequence (P08311 21-244): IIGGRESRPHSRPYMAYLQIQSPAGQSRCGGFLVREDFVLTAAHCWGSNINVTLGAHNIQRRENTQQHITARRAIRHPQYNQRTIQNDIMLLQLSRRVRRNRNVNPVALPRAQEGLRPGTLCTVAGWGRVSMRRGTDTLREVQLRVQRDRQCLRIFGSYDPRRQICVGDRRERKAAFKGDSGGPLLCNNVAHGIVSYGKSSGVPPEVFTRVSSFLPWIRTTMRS
Experimental: as §1

[7] = Pooled healthy human plasma; settings: 37° C., up to 96 h
[8] = tested on: Human neutrophil elastase; experiment: human neutrophil elastase in tris-buffered saline (TBS, pH 7.4); settings: 37° C., up to 24 h
monkey cynomolgus plasma = settings: 37° C., up to 96 h
human cathepsin G [9] = experiment: human cathepsin G in tris-buffered saline (TBS, pH 7.4); settings: 37° C., up to 24 h
human proteinase 3 [10] = experiment: human proteinase 3 in tris-buffered saline (TBS, pH 7.4); settings: 37° C., up to 24 h

Ac-Glu-(N-Me)Val-Cit-PABC-sar-pyrene [S1b]
stability against degradation mediated by neutrophil elastase or mouse plasma (in words) [1]: instability

Ac-Glu-Ala-Cit-PABC-sar-pyrene [probe 3b]
stability against human neutrophil elastase-mediated degradation (in words) [1]: complete degradation
stability in undiluted BALB/c plasma (in words) [2]: improved stability compared to EVCit probe 2

Ac-Glu-Gly-Cit-PABC-sar-pyrene [EGCit 3a]
% intact probe, Neutrophil elastase [1]: 99.2 ± 0.3%
stability against human neutrophil elastase-mediated degradation (in words) [1]: marginal or almost no degradation
stability in undiluted BALB/c plasma (in words) [2]: improved stability compared to EVCit probe 2
% intact probe, 48 h incubation, Mouse [2]: 69.2%
% intact probe, 96 h incubation, Mouse [2]: 40.3%
% intact probe, 96 h incubation, Mouse ([2]; listed as EGCit probe 3a): 40%
degradation in human plasma (in words) ([3]; pyrene probes): completely withstood degradation
% intact probe, 48 h incubation, Human [3]: 96.5%
% intact probe, 96 h incubation, Human [3]: 100.3%
degradation in monkey plasma (in words) ([4]; pyrene probes): completely withstood degradation
% intact probe, 48 h incubation, Monkey [4]: 98.7%
% intact probe, 96 h incubation, Monkey [4]: 98.8%
% intact probe, Proteinase 3 (human proteinase 3 [5]): 98.0 ± 1.1%
resistance to cleavage by human proteinase 3 (in words) (human proteinase 3 [5]): completely intact
% intact probe, Cathepsin G (human cathepsin G [6]): 100.0 ± 1.8%
resistance to cleavage by cathepsin G (in words) (human cathepsin G [6]; pyrene probes): completely intact

Ac-Glu-Ile-Cit-PABC-sar-pyrene [probe 3d]
stability against human neutrophil elastase-mediated degradation (in words) [1]: complete degradation

Ac-Glu-Leu-Cit-PABC-sar-pyrene [probe 3c]
stability against human neutrophil elastase-mediated degradation (in words) [1]: marginal or almost no degradation

Ac-Glu-Phe-Cit-PABC-sar-pyrene [S1a]
stability against degradation mediated by neutrophil elastase or mouse plasma (in words) [1]: instability

Ac-Glu-Val-(N-Me)Cit-PABC-sar-pyrene [EV(N-Me)Cit 3e]
% intact probe, Neutrophil elastase [1]: 99.0 ± 2.4%
stability against human neutrophil elastase-mediated degradation (in words) [1]: marginal or almost no degradation
stability in undiluted BALB/c plasma (in words) [2]: improved stability compared to EVCit probe 2
% intact probe, 48 h incubation, Mouse [2]: 37.8%
% intact probe, 96 h incubation, Mouse [2]: 12.0%
% intact probe, 48 h incubation, Human [3]: 99.5%
% intact probe, 96 h incubation, Human [3]: 86.4%
% intact probe, 48 h incubation, Monkey [4]: 97.8%
% intact probe, 96 h incubation, Monkey [4]: 91.9%
% intact probe, Proteinase 3 (human proteinase 3 [5]): 84.4 ± 0.9%
resistance to cleavage by human proteinase 3 (in words) (human proteinase 3 [5]): partially degraded
% intact probe, Cathepsin G (human cathepsin G [6]): 99.6 ± 0.3%

Ac-Gly-Cit-PABC-sar-pyrene [probe 3f]
stability against human neutrophil elastase-mediated degradation (in words) [1]: marginal or almost no degradation
stability in undiluted BALB/c plasma (in words) [2]: less stable than the EGCit probe 3a

Ac-Val-(N-Me)Cit-PABC-sar-pyrene [S1d]
stability against degradation mediated by neutrophil elastase or mouse plasma (in words) [1]: instability

EGCit
not cleaved [7]: 100.3 ± 5.5 % intact probe after 96 h
not cleaved [8]: 99.2 ± 0.3 % intact probe after 24 h
not cleaved (monkey cynomolgus plasma): 98.8 ± 1.6 % intact probe after 96 h
not cleaved (human cathepsin G [9]): 100.0 ± 1.8 % intact probe after 24 h
not cleaved (human proteinase 3 [10]): 98.0 ± 1.1 % intact probe after 24 h

ELCit
not cleaved [8]: marginal or almost no degradation

EV(N-Me)Cit-PABC-pyrene
not cleaved [8]: 99.0 ± 2.4 % intact probe after 24 h
not cleaved (monkey cynomolgus plasma): 91.9 ± 1.2 % intact probe after 96 h
not cleaved (human cathepsin G [9]): 99.6 ± 0.3 % intact probe after 24 h

EVCit
not cleaved [7]: 91.1 ± 1.1 % intact probe after 96 h
cleaved bond [8]: valine-citrulline
not cleaved (monkey cynomolgus plasma): 95.8 ± 1.8 % intact probe after 96 h

GCit
not cleaved [8]: marginal or almost no degradation

VCit-PABC-pyrene
cleaved bond [8]: valine-citrulline, major
